This note sets out measurements from the supplement of paper PMC11281043.

Assay [1] has as its system Danio rerio embryo/larva. The experiment in a line: max % larvae unhatched across tested concentrations; max tested concentration (log10 uM): 2; higher = more toxic. The following applies: exposure: 6-8 hpf to 5 dpf, scored at 6 dpf.
Assay [2] has as its system Danio rerio embryo/larva. As to the kind of experiment: BMC mortality; max tested concentration (log10 uM): 2; higher = less potent. To be noted: exposure: 6-8 hpf to 5 dpf, scored at 6 dpf. On the procedure: (§1)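 Zebrafish embryos (with chorion) were exposed from 6-8 hpf to each PFAS (8-point half-log series, top concentration up to 100 uM, 0.4% DMSO, sealed plates, 26 C; n = 6 embryos per concentration), rinsed at 5 dpf and scored at 6 dpf by two blinded observers for mortality, hatching and malformations. Endpoint scores are the % of living larvae affected (dead larvae excluded; […]). Curves were fitted with tcpl (cutoff 16%), and the BMC is the concentration at a benchmark response of 21.6%.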

Assay [3] deals with Danio rerio embryo/larva. As to the kind of experiment: max % larvae with any abnormality across tested concentrations; max tested concentration (log10 uM): 2; higher = more toxic; extreme values may be limits of the assay. The following applies: exposure: 6-8 hpf to 5 dpf, scored at 6 dpf.
Assay [4] deals with Danio rerio embryo/larva. The experiment in a line: max % larvae dead across tested concentrations; max tested concentration (log10 uM): 2; higher = more toxic; extreme values may be limits of the assay. The following applies: exposure: 6-8 hpf to 5 dpf, scored at 6 dpf.
Assay [5] deals with Danio rerio embryo/larva. The experiment in a line: BMC any abnormality; max tested concentration (log10 uM): 2; higher = less potent. To be noted: exposure: 6-8 hpf to 5 dpf, scored at 6 dpf. On the procedure: as §1
For assay [6], the system named is Danio rerio embryo/larva. As to the kind of experiment: max % larvae generally abnormal across tested concentrations; higher = more toxic; extreme values may be limits of the assay. To be noted: exposure: 6-8 hpf to 5 dpf, scored at 6 dpf.
For assay [7], the system named is Danio rerio embryo/larva. As to the kind of experiment: max % larvae with uninflated swim bladder across tested concentrations; higher = more toxic; extreme values may be limits of the assay. The following applies: exposure: 6-8 hpf to 5 dpf, scored at 6 dpf.
Assay [8] has as its system Danio rerio embryo/larva. The experiment in a line: max % larvae with blood pooling across tested concentrations; higher = more toxic; extreme values may be limits of the assay. To be noted: exposure: 6-8 hpf to 5 dpf, scored at 6 dpf.
In assay [9] the test system is Danio rerio embryo/larva. The experiment in a line: max % larvae with craniofacial defects across tested concentrations; higher = more toxic; extreme values may be limits of the assay. To be noted: exposure: 6-8 hpf to 5 dpf, scored at 6 dpf.
For assay [10], the system named is Danio rerio embryo/larva. The experiment in a line: BMC general abnormality; higher = less potent. To be noted: exposure: 6-8 hpf to 5 dpf, scored at 6 dpf. On the procedure: as §1
Assay [11] deals with Danio rerio embryo/larva. As to the kind of experiment: max % larvae with abnormal position across tested concentrations; higher = more toxic; extreme values may be limits of the assay. To be noted: exposure: 6-8 hpf to 5 dpf, scored at 6 dpf.
Assay [12] concerns Danio rerio embryo/larva. As to the kind of experiment: max % larvae with pigmentation defects across tested concentrations; higher = more toxic. The following applies: exposure: 6-8 hpf to 5 dpf, scored at 6 dpf.
Assay [13] has as its system Danio rerio embryo/larva. The experiment in a line: max % larvae with spinal defects across tested concentrations; higher = more toxic; extreme values may be limits of the assay. To be noted: exposure: 6-8 hpf to 5 dpf, scored at 6 dpf.
The subject of assay [14] is Danio rerio embryo/larva. As to the kind of experiment: max % larvae with edema across tested concentrations; higher = more toxic; extreme values may be limits of the assay. To be noted: exposure: 6-8 hpf to 5 dpf, scored at 6 dpf.
Assay [15] has as its system Danio rerio embryo/larva. The experiment in a line: max % larvae with tail defects across tested concentrations; higher = more toxic; extreme values may be limits of the assay. To be noted: exposure: 6-8 hpf to 5 dpf, scored at 6 dpf.
Assay [16] has as its system Danio rerio embryo/larva. As to the kind of experiment: BMC craniofacial defects; higher = less potent. The following applies: max tested concentration (log10 uM): 0.477121; exposure: 6-8 hpf to 5 dpf, scored at 6 dpf. On the procedure:
as §1

Assay [17] deals with Danio rerio embryo/larva. The experiment in a line: BMC swim bladder non-inflation; higher = less potent. To be noted: max tested concentration (log10 uM): 0.477121; exposure: 6-8 hpf to 5 dpf, scored at 6 dpf. On the procedure: as §1
The subject of assay [18] is Danio rerio embryo/larva. As to the kind of experiment: BMC edema; higher = less potent. The following applies: max tested concentration (log10 uM): 0.477121; exposure: 6-8 hpf to 5 dpf, scored at 6 dpf. On the procedure:
as §1

Turning to `N=C(N)C(F)(F)C(F)(F)C(F)(F)C(F)(F)C(F)(F)C(F)(F)C(F)(F)F` [Perfluorooctanamidine], the “max % larvae unhatched across tested concentrations” value in the assay with Danio rerio embryo/larva [1] was determined as 0%. In addition, the BMC mortality with Danio rerio embryo/larva [2] came to 19.5 µM. This compound displayed a max % larvae in the assay on Danio rerio embryo/larva [3] of 100%. Besides, in the assay on Danio rerio embryo/larva [4], the “max % larvae dead across tested concentrations” value turned out to be 100%. In addition, the BMC any abnormality with Danio rerio embryo/larva [5] came to 19.5 µM.
With `NS(=O)(=O)C(F)(F)C(F)(F)C(F)(F)C(F)(F)C(F)(F)C(F)(F)C(F)(F)C(F)(F)F` [Perfluorooctanesulfonamide] (max tested concentration (log10 uM): 0), the “max % larvae generally abnormal across tested concentrations” value with Danio rerio embryo/larva [6] amounted to 41.7%. In addition, the max % larvae in the assay on Danio rerio embryo/larva [7] worked out at 50%; in the assay on Danio rerio embryo/larva [8], 16.7%; in the assay on Danio rerio embryo/larva [9] it was 8.33%; in the assay with Danio rerio embryo/larva [11], 8.33%; in the assay with Danio rerio embryo/larva [12], 0%; in the assay on Danio rerio embryo/larva [13] it was 0%. The max % larvae with Danio rerio embryo/larva [14] turned out to be 37.5%; in the assay with Danio rerio embryo/larva [15] it was 0%. Also, the BMC general abnormality in the assay on Danio rerio embryo/larva [10] came out at 0.381 µM.
For the compound `O=S(=O)(O)C(F)(F)C(F)(F)C(F)(F)C(F)(F)C(F)(F)C(F)(F)C(F)(F)C(F)(F)F` [Perfluorooctanesulfonic acid] (max tested concentration (log10 uM): 1), in the assay with Danio rerio embryo/larva [6], the “max % larvae generally abnormal across tested concentrations” value worked out at 75%. For the same compound, the max % larvae in the assay on Danio rerio embryo/larva [7] worked out at 62.5%; in the assay on Danio rerio embryo/larva [8], 0%; with Danio rerio embryo/larva [9], 50%; in the assay with Danio rerio embryo/larva [11], 25%; with Danio rerio embryo/larva [12], 0%; with Danio rerio embryo/larva [13] it was 6.25%. Further, the max % larvae came to 43.8% with Danio rerio embryo/larva [14] and 18.8% with Danio rerio embryo/larva [15]. The same compound came in with a BMC general abnormality with Danio rerio embryo/larva [10] of 7.82 µM.
Turning to `OC(C(F)(F)F)(C(F)(F)F)C(O)(C(F)(F)F)C(F)(F)F` [Perfluoropinacol], the “max % larvae unhatched across tested concentrations” value with Danio rerio embryo/larva [1] came out at 0%. The compound also displayed a BMC craniofacial defects in the assay with Danio rerio embryo/larva [16] of 2.47 µM. For the same compound, the max % larvae with Danio rerio embryo/larva [3] worked out at 100%. Besides, in the assay on Danio rerio embryo/larva [17], the “BMC swim bladder non-inflation” value stood at 2.28 µM. The BMC edema with Danio rerio embryo/larva [18] was 2.52 µM. Further, the BMC any abnormality in the assay on Danio rerio embryo/larva [5] amounted to 1.94 µM.
Turning to `OC(C(F)(F)F)(C(F)(F)F)C(O)(C(F)(F)F)C(F)(F)F` [Perfluoropinacol] (max tested concentration (log10 uM): 0.477121), in the assay on Danio rerio embryo/larva [6], the “max % larvae generally abnormal across tested concentrations” value came to 50%. In addition, the max % larvae is 100% in the assay with Danio rerio embryo/larva [7]; 0% with Danio rerio embryo/larva [8]; 50% in the assay with Danio rerio embryo/larva [9]; 0% with Danio rerio embryo/larva [11]; 0% in the assay on Danio rerio embryo/larva [12]; 0% with Danio rerio embryo/larva [13]. Further, the figures for the max % larvae with Danio rerio embryo/larva [14] and in the assay on Danio rerio embryo/larva [15] were 50% and 0%, respectively. Further, in the assay with Danio rerio embryo/larva [10], the BMC general abnormality was found to be 2.52 µM.
`O=C(O)C(F)(F)C(F)(F)C(F)(F)C(F)(F)C(F)(F)C(F)(F)C(F)(F)C(F)(F)C(F)(F)C(F)(F)F` [Perfluoroundecanoic acid]: the “max % larvae unhatched across tested concentrations” value in the assay on Danio rerio embryo/larva [1] is 0%. Also, the BMC mortality in the assay with Danio rerio embryo/larva [2] was 14.5 µM. The same compound yielded a max % larvae in the assay on Danio rerio embryo/larva [3] of 100%. The “max % larvae dead across tested concentrations” value in the assay on Danio rerio embryo/larva [4] was 100%. The same compound had a BMC edema in the assay on Danio rerio embryo/larva [18] of 2.74 µM. In the assay with Danio rerio embryo/larva [5], this compound displayed a BMC any abnormality of 2.94 µM.
Turning to `O=C(O)C(F)(F)C(F)(F)C(F)(F)C(F)(F)C(F)(F)C(F)(F)C(F)(F)C(F)(F)C(F)(F)C(F)(F)F` [Perfluoroundecanoic acid] (max tested concentration (log10 uM): 0.477121), in the assay on Danio rerio embryo/larva [6], the “max % larvae generally abnormal across tested concentrations” value was 25%. For the same compound, the max % larvae with Danio rerio embryo/larva [7] came out at 16.7%; with Danio rerio embryo/larva [8], 8.33%; with Danio rerio embryo/larva [9], 16.7%; in the assay with Danio rerio embryo/larva [11], 8.33%; in the assay on Danio rerio embryo/larva [12] it was 0%; in the assay on Danio rerio embryo/larva [13], 8.33%. Besides, the max % larvae in the assay on Danio rerio embryo/larva [14] was 25%; in the assay on Danio rerio embryo/larva [15] it was 12.5%. The compound further displayed a BMC general abnormality with Danio rerio embryo/larva [10] of 2.74 µM.
